How the values were obtained:
[1] = test system: bronchoconstriction provoked by acetylcholine; assay: Bronchoconstriction provoked by intravenous acetylcholine, Konzett method; format: in vivo; details: guinea-pig, intraperitoneal injection of 100mg/kg
Method: Injected by intraduodenal means, the derivatives of formula I are capable of opposing the bronchoconstriction provoked in the guinea - pig by the intraveinous injection of acetylcholine and evaluated by the Konzett method.
By way of example, the following Table VI lists the percentage inhibition of the bronchoconstriction following the intraperitoneal injection of 100mg/kg of different derivatives of formula I.

[2] = test system: painful stretchings caused by phenylbenzoquinone; assay: Analgesic test with phenylbenzoquinone (painful stretchings); format: in vivo; details: Mus musculus, po, read-out: Percentage of diminution of the number of painful stretchings
[3] = Lethal doses / percentage mortality; format: in vivo; details: in vivo, mouse
Excerpt: As a result of a comparison between the pharmacologically active doses mentioned above, and the lethal doses listed in the following table XIV, the difference between the doses is sufficiently great to permit the utilisation of the derivatives of formula I in therapeutics.

[4] = test system: mortality caused by strychnine; assay: Mortality caused by sub-cutaneous injection of strychnine (myorelaxant); format: in vivo; details: mouse, 100 mg/kg/p.o.
Method: The derivatives of formula I, preventively administered by oral means to the mouse, reduce the mortality caused by the sub-cutaneous injection of strychnine.
Thus, the derivative of Code No. 72608, administered in a dose of 100 mg/kg/p.o., permits a 50 % protection against the lethality of strychnine.

Shay ulcers = assay: Gastric ulcers provoked by tying of the pylorus (Shay ulcers); format: in vivo; details: intraduodenal; rat, 50mg/kg/i.d.; read-out: Percentage reduction of shay ulcers
Method: The derivatives of formula I, administered by oral means, reduce the extent of gastric ulcers provoked in a rat by tying of the pylorus (Shay ulcers)
Table IV indicated, by way of example, the results obtained by the administration of 50mg/kg/i.d. of different derivatives of formula I.

[5] = test system: isolated duodenum of the rat; assay: Contractural action of barium chloride in isolated duodenum (spasmolytic); details: papaverine as standard
Method: The derivatives of formula I introduced in the conserving medium, are capable of opposing the contractural action of barium chloride in the isolated duodenum of the rat. This activity is evaluated taking papaverine as standard.

Compound	Percentage inhibition of bronchoconstriction [1] [%]	inhibition in vivo at 100 mg/kg [2] [%]	mortality ([3]; 1 600 mg/kg/PO) [%]	protection against the lethality of strychnine [4] [%]	inhibition in vivo at 50 mg/kg (Shay ulcers) [%]	mortality ([3]; 1000 mg/kg, 1 000 mg/kg/PO) [%]	spasmolytic activity relative to papaverine [5]
Cc1cc(Nc2ccccc2C(N)=O)nc(-c2ccc3c(c2)OCO3)n1 [72 608]	65	55	~50	50			
CCCN(CCC)CCOc1ccc(Nc2cc(C)nc(-c3ccccc3)n2)cc1 [730 282]		73			50	~50	double to that of papaverine
